According to patent US9096639B2, “17-hydroxy-17-pentafluorethyl-estra-4,9(10)-dien-11-acyloxyalkylene phenyl derivatives, methods for the production thereof and use thereof for treating diseases” (Bayer Intellectual Property GmbH, priority 2009, dated 2015):
Where a name gives a salt, the structure may show the parent alone.

What was measured:
[1] = biological target: T1, human progesterone receptor B (Homo sapiens, UniProt P06401); assay: Progesterone receptor transactivation test in stably transfected SK-N-MC cells (PR-B, MMTV-LUC reporter); type: cell-based; conditions: 0.1 nmol/l promegestone, 24 hours, read-out: PR-B IC50 (antagonistic potency)
T1 construct: expressed in transfected cells; host or cells: SK-N-MC human neuroblastoma cells, stably transfected with pRChPR-B-neo and pMMTV-LUC
T1 sequence (P06401 1-933): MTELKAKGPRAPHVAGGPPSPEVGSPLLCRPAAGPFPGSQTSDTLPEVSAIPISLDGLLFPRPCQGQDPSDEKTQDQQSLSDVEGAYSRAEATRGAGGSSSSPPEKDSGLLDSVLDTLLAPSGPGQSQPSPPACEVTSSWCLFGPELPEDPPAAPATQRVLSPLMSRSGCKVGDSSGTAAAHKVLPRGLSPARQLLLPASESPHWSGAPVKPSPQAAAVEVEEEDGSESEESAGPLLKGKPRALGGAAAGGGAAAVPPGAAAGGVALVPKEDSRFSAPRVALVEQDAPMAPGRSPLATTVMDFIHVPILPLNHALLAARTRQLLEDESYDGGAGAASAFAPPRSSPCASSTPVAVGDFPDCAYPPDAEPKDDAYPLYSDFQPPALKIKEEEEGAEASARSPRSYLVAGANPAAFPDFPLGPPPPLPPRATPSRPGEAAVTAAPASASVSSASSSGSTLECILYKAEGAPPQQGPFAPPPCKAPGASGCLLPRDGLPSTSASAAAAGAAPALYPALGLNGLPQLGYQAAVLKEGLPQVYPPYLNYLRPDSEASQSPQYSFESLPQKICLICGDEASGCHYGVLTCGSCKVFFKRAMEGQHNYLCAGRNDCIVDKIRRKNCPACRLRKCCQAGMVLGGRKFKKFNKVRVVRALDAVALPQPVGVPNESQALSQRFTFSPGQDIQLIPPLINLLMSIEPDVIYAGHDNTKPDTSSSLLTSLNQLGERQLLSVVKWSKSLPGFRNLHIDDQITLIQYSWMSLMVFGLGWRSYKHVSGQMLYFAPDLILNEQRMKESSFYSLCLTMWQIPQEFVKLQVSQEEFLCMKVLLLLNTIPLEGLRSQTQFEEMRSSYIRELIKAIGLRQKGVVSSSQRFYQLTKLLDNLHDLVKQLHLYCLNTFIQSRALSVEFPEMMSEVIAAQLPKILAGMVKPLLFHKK
Method: (§1) Progesterone receptor-antagonistic action in stable transfectants of human neuroblastoma cells (SK-N-MC cells) with the human progesterone A or progesterone B receptor and an MN-LUC reporter construct SK-N-MC cells (human neuroblastoma cells) which have been stably transfected with plasmids expressing the human progesterone receptor B (pRChPR-B-neo) or the human progesterone receptor A (pRChPR-A-neo) and a reporter construct (pMMTV-LUC) were incubated for 24 hours either in the absence (negative control) or in the presence of ascending amounts of the particular test compound (0.01 nmol/l, 0.1 nmol/l, 1 […], 100 nmol/l and […]), in order to determine the agonistic efficacy. As a positive control of the reporter gene induction, the cells were treated with the synthetic gestagen promegestone (0.01 nmol/l, 0.1 nmol/l, 1 nmol/l, 10 nmol/l, 100 nmol/l and […]). To determine the antagonistic activity, the cells were treated with 0.1 nmol/l promegestone and additionally with ascending amounts of the particular test compound (0.01 nmol/l, 0.1 nmol/l, 1 nmol/l, 10 nmol/l, 100 nmol/l and […]). The activity of the reporter gene LUC (LUC=luciferase) was determined in the cell lysates and measured as RLU (relative light units). All measurements are reported as % efficacy and as EC50 and IC50 concentrations.

[2] = Determination of stability in human plasma; type: in vitro ADME
Method: (§2) A stock solution of 1.0 mg of the substance to be tested in a 9:1 mixture of acetonitrile and dimethyl sulphoxide was prepared. 20 μl of this stock solution were added at 37° C. to 1 ml of human plasma or rat plasma. To determine the content, 100 μl samples were each taken at different times. The enzyme activity was blocked by adding 300 μl of acetonitrile, the samples were centrifuged at 5000 rpm over 10 minutes and, in the supernatant, the content of ester and hydrolysis products (8S,11R,13S,14S,17S)-17-hydroxy-11-[4-((R)-1-hydroxyethyl)phenyl]-1 3-methyl-17-pentafluoroethyl-1,2,6,7,8,11,12,13,14,15,16,17-dodecahydrocyclopenta[a]phenanthren-3-one and/or (8S,11R,13S,14S,17S)-17-hydroxy-11-[4-((S)-1-hydroxyethyl)phenyl]-13-methyl-17-pentafluoroethyl-1,2,6,7,8,11,12,13,14,15,16,17-dodecahydrocyclopenta[a]phenanthrene-3-one was determined by HPLC. The concentration-time curves were used to calculate the degradation kinetics. The stability of the substance tested was reported as the half-life.

[3] = biological target: T2, human progesterone receptor A (Homo sapiens, UniProt P06401); assay: Progesterone receptor transactivation test in stably transfected SK-N-MC cells (PR-A, MMTV-LUC reporter); type: cell-based; conditions: 0.1 nmol/l promegestone, 24 hours, read-out: PR-A IC50 (antagonistic potency)
T2 construct: expressed in transfected cells; host or cells: SK-N-MC human neuroblastoma cells, stably transfected with pRChPR-A-neo and pMMTV-LUC
T2 sequence (P06401 1-769 isoform P06401-2): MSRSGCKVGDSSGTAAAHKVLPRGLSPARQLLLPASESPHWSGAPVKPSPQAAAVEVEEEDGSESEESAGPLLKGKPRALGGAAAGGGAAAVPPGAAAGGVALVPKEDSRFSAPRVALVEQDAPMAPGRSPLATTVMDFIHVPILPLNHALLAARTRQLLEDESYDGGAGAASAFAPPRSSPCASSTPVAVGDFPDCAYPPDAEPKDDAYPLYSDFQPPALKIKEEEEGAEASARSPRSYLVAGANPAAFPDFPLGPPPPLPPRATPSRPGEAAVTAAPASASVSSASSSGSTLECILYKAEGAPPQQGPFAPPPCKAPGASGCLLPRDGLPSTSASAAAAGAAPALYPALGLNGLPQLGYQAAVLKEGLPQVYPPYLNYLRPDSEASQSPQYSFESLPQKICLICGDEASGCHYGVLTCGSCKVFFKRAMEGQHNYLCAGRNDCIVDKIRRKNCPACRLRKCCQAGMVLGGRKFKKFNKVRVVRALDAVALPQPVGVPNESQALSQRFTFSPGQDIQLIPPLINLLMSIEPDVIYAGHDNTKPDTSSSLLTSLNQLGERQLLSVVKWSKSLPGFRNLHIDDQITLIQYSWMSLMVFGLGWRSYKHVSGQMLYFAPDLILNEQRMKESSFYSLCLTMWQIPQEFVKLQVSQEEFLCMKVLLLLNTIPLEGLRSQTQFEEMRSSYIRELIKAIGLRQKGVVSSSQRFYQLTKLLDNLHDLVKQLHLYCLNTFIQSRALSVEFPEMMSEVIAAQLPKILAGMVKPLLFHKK
Method: as §1

[4] = Determination of hydrolytic stability (5:1 dioxane/buffer, HPLC); type: physicochemical; conditions: 5:1 dioxane/buffer solution, test ended after 24 or 192 hours, read-out: Hydrolytic stability t1/2
Method: The ester to be analyzed was dissolved in each case in a 5:1 mixture of dioxane and buffer solution (pH 1.2, pH 5.0 or pH 8.0) at 23° C. At different times, the content of ester and hydrolysis products (8S,11R,13S,14S,1 7S)-17-hydroxy-11-[4-((R)-1-hydroxyethyl)phenyl]-13-methyl-17-pentafluoroethyl-1,2,6,7,8,11,12,13,14,15,16,17-dodecahydrocyclopenta[a]phenanthren-3-one and/or (8S,11R,13S,14S,17S)-17-hydroxy-11-[4-((S)-1-hydroxyethyl)phenyl]-1 3-methyl-17-pentafluoroethyl-1,2,6,7,8,11,12,13,14,15,16,17-dodecahydrocyclopenta[a]phenanthren-3-one was determined by HPLC. The test was ended after 24 hours or 192 hours.

[5] = Determination of stability in rat plasma; type: in vitro ADME; conditions: 37° C., read-out: Stability t1/2 in rat plasma (converted)
Method: as §2

[6] = 37° C., read-out: Stability t1/2 in human plasma (converted)
[7] = method of working example 19, summary statement in description, read-out: half-life in human plasma

| Structure (SMILES) | IC50 [1] [nM] | half-life [2, 6] [h] | half-life [2, 7] [h] | IC50 [3] [nM] | half-life ([4]; pH = 1.2, 23° C.) [h] | half-life ([4]; pH = 8.0, 23° C.) [h] | half-life [5] [h] |
| --- | --- | --- | --- | --- | --- | --- | --- |
| CC(OC(=O)[C@@H]1CCCN1C(=O)OC(C)(C)C)c1ccc([C@H]2C[C@@]3(C)C(CC[C@@]3(O)C(F)(F)C(F)(F)F)C3CCC4=CC(=O)CCC4=C32)cc1 (mixture of isomers) [Example 11, (S)-Pyrrolidine-1,2-dicarboxylic acid 1-tert-butyl ester 2-{(RS)-1-[4-((8S,11R,13S,14S,17S)-17-hydroxy-13-methyl-3-oxo-17-pentafluoroethyl-2,3,6,7,8,11,12,13,14,15,16,17-dodecahydro-1H-cyclopenta[a]phenanthren-11-yl)phenyl]ethyl}ester] | 0.05 | > 1000 | > 100 | 0.1 | > 192 | > 192 | 462 |
| CC(OC(=O)[C@@H]1CCCN1)c1ccc([C@H]2C[C@@]3(C)C(CC[C@@]3(O)C(F)(F)C(F)(F)F)C3CCC4=CC(=O)CCC4=C32)cc1 (mixture of isomers) [Example 13, (S)-Pyrrolidine-2-carboxylic acid (RS)-1-[4-((8S,11R,13S,14S,17S)-17-hydroxy-13-methyl-3-oxo-17-pentafluoroethyl-2,3,6,7,8,11,12,13,14,15,16,17-dodecahydro-1H-cyclopenta[a]phenanthren-11-yl)phenyl]ethyl ester hydrochloride] | 0.74 | 9.7 | – | 0.27 | > 192 | > 192 | 5.3 |
| CC(OC(=O)CCc1nccs1)c1ccc([C@H]2C[C@@]3(C)C(CC[C@@]3(O)C(F)(F)C(F)(F)F)C3CCC4=CC(=O)CCC4=C32)cc1 (mixture of isomers) [Example 15, 3-Thiazol-2-ylpropionic acid (RS)-1-[4-((8S,11R,13S,14S,17S)-17-hydroxy-13-methyl-3-oxo-17-pentafluoroethyl-2,3,6,7,8,11,12,13,14,15,16,17-dodecahydro-1H-cyclopenta[a]phenanthren-11-yl)phenyl]ethyl ester] | 0.1 | 131 | > 100 | 0.1 | > 192 | > 192 | 1.2 |
| Cc1nccn1CCC(=O)O[C@@H](C)c1ccc([C@H]2C[C@@]3(C)[C@@H](CC[C@@]3(O)C(F)(F)C(F)(F)F)[C@@H]3CCC4=CC(=O)CCC4=C32)cc1 (single isomer, unassigned) [Example 14A] | 0.29 | 190 | > 100 | 0.18 | – | – | 48.5 |
| Cc1nccn1CCC(=O)O[C@H](C)c1ccc([C@H]2C[C@@]3(C)[C@@H](CC[C@@]3(O)C(F)(F)C(F)(F)F)[C@@H]3CCC4=CC(=O)CCC4=C32)cc1 (single isomer, unassigned) [Example 14B] | 0.15 | 19.8 | – | 0.29 | – | – | 0.8 |
| C=CCOC(=O)N[C@@H](C)C(=O)O[C@H](C)c1ccc([C@H]2C[C@@]3(C)[C@@H](CC[C@@]3(O)C(F)(F)C(F)(F)F)[C@@H]3CCC4=CC(=O)CCC4=C32)cc1 [Example 9, (S)-2-Allyloxycarbonylaminopropionic acid (R)-1-[4-((8S,11R,13S,14S,17S)-17-hydroxy-13-methyl-3-oxo-17-pentafluoroethyl-2,3,6,7,8,11,12,13,14,15,16,17-dodecahydro-1H-cyclopenta[a]phenanthren-11-yl)phenyl]ethyl ester] | 0.09 | 231 | > 100 | 0.01 | – | – | 0.3 |
| C=CCOC(=O)N[C@@H](C)C(=O)O[C@@H](C)c1ccc([C@H]2C[C@@]3(C)[C@@H](CC[C@@]3(O)C(F)(F)C(F)(F)F)[C@@H]3CCC4=CC(=O)CCC4=C32)cc1 [Example 10, (S)-2-Allyloxycarbonylaminopropionic acid (S)-1-[4-((8S,11R,13S,14S,17S)-17-hydroxy-13-methyl-3-oxo-17-pentafluoroethyl-2,3,6,7,8,11,12,13,14,15,16,17-dodecahydro-1H-cyclopenta[a]phenanthren-11-yl)phenyl]ethy lester] | 0.09 | 22.9 | – | 0.08 | – | – | 3.6 |
